Source: patent US8247572B2, “Facilitated transport of bisphosphonates by vitamin C” (Duke University, priority 2005, dated 2012)

Key:
[1] = system: primary human chondrocytes; assay: Ascorbic acid transport assay in isolated primary human chondrocytes; assay type: cell-based; settings: for suppression of L-14C-Asc transport by unlabeled competitor: 2 mM competitor, versus no competitor; for ability to compete with L-14C-Asc for transport: 2 mM unlabeled competitor
Method: Ascorbic Acid Transport Assay in Isolated Primary Human Chondrocytes. AA transport was measured using a modified version of the uptake assay published by Wilson and Dixon (J. X. Wilson, S. J. Dixon, High-Affinity Sodium-Dependent Uptake of Ascorbic Acid by Rat Osteoblasts, J. Mem. Biol. 111 (1989) 83-91). Primary human chondrocytes were seeded at a density of 4.5×10^5 cells/well on a 6-well plate (or 2.25×10^5 cells/well on a 12-well plate for the kinetic experiments). Prior to the transport assay, cells were plated for 48 hours in DMEM/F12, containing 10% FCS but no AA. Cells were washed in transport buffer containing: 134 mM NaCl, 5.4 mM KCl, 1.8 mM CaCl2, 0.8 mM MgSO4, 10 mM D-glucose, 20 mM HEPES, pH 7.3 with NaOH. […] The standard AA transport assay conditions were 37° C./5% CO2 for 10 minutes. AA uptake was terminated by washing the cells four-times in ice-cold PBS. The cells were lysed with Puregene Cell Lysis Solution (Gentra Systems) and scintillation counting was performed in Uniscint BD (National Diagnostics).
In experiments with sodium free transport buffer, iso-osmotic concentrations of LiCl were substituted for NaCl. […]

[2] = system: primary human chondrocytes; assay: Dehydroascorbate transport assay in isolated primary human chondrocytes; assay type: cell-based; settings: for inhibition of DHA transport: 0.1 mM inhibitor, p<0.001; for ability to compete with L-14C-DHA transport: 2 mM unlabeled competitor; for mode of inhibition of L-14C-DHA transport (Dixon plot): data not shown; for increase in L-14C-DHA uptake versus 21% oxygen tension: 24 hours
Method: Dehydroascorbate Transport Assay in Isolated Primary Human Chondrocytes. DHA transport was measured using a modified version of the uptake assay published by Wilson and Dixon (Wilson J X, Dixon S J. High-Affinity Sodium-Dependent Uptake of Ascorbic Acid by Rat Osteoblasts. J. Mem. Biol. 1989; 111:83-91). Primary human chondrocytes were seeded at a density of 4.5×10^5 cells/well on a 6-well plate. Prior to the transport assay, cells were plated for 48 hours in DMEM/F12, containing 10% FCS but no AA or DHA. Cells were washed in transport buffer containing: 134 mM LiCl, 5.4 mM KCl, 1.8 mM CaCl2, 0.8 mM MgSO4, 20 mM HEPES, pH 7.3 with KOH. DHA uptake was assessed by incubating the chondrocytes in transport buffer containing 189 μM L-^14C-dehydroascorbate (L-^14C-DHA). […] The standard DHA transport assay conditions were 37° C./5% CO2/21% O2 for 10 min. DHA uptake was terminated by washing the cells four-times in ice-cold PBS. […] The total pmol of L-^14C-DHA transported was calculated using the total dpm of L-^14C-DHA transported and the specific activity of the radiolabel.
Matrix Biol. 2002; 21:175-184). Stock solutions of different unlabeled DHA forms were generated in the same manner as the L-^14C-DHA. […]

[3] = system: primary human chondrocytes; assay: BP / BP-AA uptake assay in chondrocyte monolayer (HPLC); assay type: cell-based
Method: Uptake Assay Methods. Primary human chondrocytes were seeded at a density of 4.5×10^5 cells for 48 hours. The cells were washed with ascorbic acid transport buffer. The free bisphosphonate (BP) and the bisphosphonate conjugated to ascorbic acid (BP-AA) were solubilized in ascorbic acid transport buffer at 10 mM concentration. The cells were incubated with either the free BP or the BP-AA for an hour at 37° C./5% CO2. The cells were washed 4× with ice-cold PBS to remove any extracellular BP or BP-AA. The cells were then lysed in 250 μl ddH2O for 15 minutes on ice, sonicated for 5 minutes, and then scraped from the culture dish. The lysate was then analyzed by ion pair reverse phase HPLC with UV and electrochemical detection (ECD) as described below.
HPLC Methods. Ascorbic acid, free and conjugated, and risedronate analogs were determined by a modification of an ion pair reverse phase high-performance liquid chromatography method initially described by Vallano et al. (Vallano, P. T., Shugarts, S. B., Kline, W. F., Woolf, E. J., and Matuszewski, B. K., Determination of Risedronate in Human Urine by Column-Switching Ion-Pair High-Performance Liquid Chromatography with Ultraviolet Detection. J Chromatogr B Analyt Technol Biomed Life Sci, 2003, 794:23-33). The column consisted of a C18 packing, the mobile phase contained 8% acetonitrile and 92% of 0.005M Q8 (1-octyltriethylammonium phosphate [Regis Technologies, Morton Grove, Ill.]) and 1 mM etidronate (1-hydroxyethylidene-1,1-diphosphonic acid [Strem Chemicals, Newburyport, Mass.]) in a sodium phosphate buffer, pH 6.2, and was pumped at […]. The injection volume was 100 μl and detection was at 262 nm (UV) and 0.7V (ECD).

[4] = system: human articular cartilage explants; settings: 50 µM
From the text: Cartilage explants were isolated from human knee articular cartilage surgical waste tissues at the time of knee replacement surgery (n=5). Cartilage was harvested from non-lesioned areas, using a 2 mm diameter micro dissecting trephine (Biomedical Research Instruments, Rockville, Md.). A group of five cartilage plugs was pooled to constitute one sample. Each sample was paired with a corresponding sample from the same specimen and the same sites. The cartilage plugs were weighed and then transferred to a 24-well plate, containing 1 ml wash media (described in the chondrocyte isolation procedure). The cartilage plugs were incubated in 1 ml DMEM/F12 (Gibco, Grand Island, N.Y.) with 10% FCS (Gibco) and no AA for 48 hours at 37° C./5% CO2, prior to the procedures below.
The cartilage explants were washed with PBS and half of the samples were transferred to 1.5 ml centrifuge tubes with a drop of PBS. The tubes were frozen in liquid nitrogen for three minutes and thawed at 37° C. for five minutes. This freeze/thaw procedure was performed for a total of three cycles. The dead explants were transferred back to the 24-well plates.
Explant Ascorbic Acid Transport Assay. […] Samples were processed to isolate the cells from the matrix fraction (see Intracellular versus Extracellular AA) or counted for radioactivity by transferring the whole explants to glass scintillation vials and solubilizing the samples overnight at room temperature in 0.5 ml Solulene 350 (Perkin Elmer Life and Analytical Services, Boston, Mass.). Hionic Fluor scintillation fluid (5 ml, Perkin Elmer Life and Analytical Services) was added, and radioactivity was counted in the live and dead explants, using a scintillation counter.
Explant isolation, explant treatments, and the explant AA transport assay (through the PBS wash step) were performed, followed by the chondrocyte isolation procedure described above. After the cell fraction was isolated from the matrix, the cells were washed, then 15 μl of the cells were counted on a hemacytometer, in order to determine the total number of cells in the cell fraction. […]

[5] = 100 μM inhibitor, 10 minutes, p<0.001

Question: Which “inhibition of L-14C-Asc transport” value [1, 5] does the source give for C[C@H]1C/C=C/[C@H]2[C@@H]3O[C@]3(C)[C@@H](C)[C@H]3[C@H](Cc4ccccc4)NC(=O)[C@]32OC(=O)O/C=C/[C@@](C)(O)C1=O [cytochalasin E] here?
Answer: 35%

Question: What about the “inhibition of DHA transport” value ([2]; 10 min) of the same compound?
Answer: 40%

Question: Which results are given for O=C1C(CC[S+]([O-])c2ccccc2)C(=O)N(c2ccccc2)N1c1ccccc1 (stereo not shown) [sulfinpyrazone]?
Answer: inhibition at 100 µM ([1]; Homo sapiens, Chondrocyte, 10 min, 100 μM inhibitor, 10 minutes, p<0.001, read-out: inhibition of L-14C-Asc transport): ~65%; inhibition at 100 µM ([3]; Homo sapiens, Chondrocyte, 0.75 h, 100 μM sulfinpyrazone, 45 minutes in advance of 10 mM BP-AA): ~75%

Question: What does the source list for O=C1O[C@H]([C@@H](O)CO)C([O-])=C1O.[Na+] [Na L-Asc, Na L-ascorbate]?
Answer: suppression of L-14C-Asc transport by unlabeled competitor ([1]; 10 minutes, p<0.001): 75%; ability to compete with L-14C-DHA transport ([2]; 10 min): able to effectively compete

Question: How did the “vMax for AA transport in chondrocytes” value ([1]; 0-500 μM L-14C-Asc, Michaelis-Menten) turn out when O=C1O[C@H]([C@@H](O)CO)C(O)=C1O [L-Asc, L-ascorbic acid] was run?
Answer: 148+/−35 pmol L-^14C-Asc/10^6 cells/10 minutes

Question: What about the Km ([1]; 0-500 μM L-14C-Asc, Michaelis-Menten, read-out: Km for AA transport in chondrocytes) of the same compound?
Answer: 179 µM

Question: What about the “concentration of unlabeled L-Asc at which the transporter is fully saturated” value ([1]; 200 μM L-14C-Asc, 10 minutes) of the same compound?
Answer: approximately 1000 μM

Question: What about the “suppression of L-14C-Asc transport by unlabeled competitor” value ([1]; 10 minutes, p<0.001) of the same compound?
Answer: approximately 60%

Question: What about the “ability to compete with L-14C-DHA transport” value ([2]; 10 min) of the same compound?
Answer: able to effectively compete

Question: What about the “mode of inhibition of L-14C-DHA transport (Dixon plot)” value [2] of the same compound?
Answer: non-competitive inhibitors

Question: And the “calculated intracellular concentration of total AA, deep zone cells” value [4]?
Answer: 45 mM

Question: What about the “calculated intracellular concentration of total AA, middle zone cells” value [4] of the same compound?
Answer: 51 mM

Question: What about the “calculated intracellular concentration of total AA, superficial zone cells” value [4] of the same compound?
Answer: 67 mM

Question: With O=C1O[C@@H]([C@H](O)CO)C(=O)C1=O [D-DHA, D-dehydroascorbate] as the compound, how does the “ability to compete with L-14C-DHA transport” value ([2]; 10 min) read?
Answer: able to effectively compete

Question: What does the source list for O=C(CCC(=O)OCC(O)C1OC(=O)C(O)=C1O)Nc1ccc(NC(P(=O)(O)O)P(=O)(O)O)nc1 [BP-AA, 6-O-{N-[6-[(bisphosphonomethyl)amino]pyridin-3-yl]}succinyl-L-ascorbic acid]?
Answer: transport of BP-AA versus AA alone ([3]; 10 mM BP-AA, one hour): 143 fold; amount gaining entry to chondrocytes in monolayer ([3]; 10 mM, one hour, 37° C.): 2281 nmol/mg protein; inhibition at 10000 µM ([3]; Homo sapiens, Chondrocyte, 1 h, 10 mM BP-AA, one hour, no sodium, read-out: inhibition of BP-AA uptake in the absence of sodium): 50%

Question: For L-^14C-dehydroascorbate [L-^14C-DHA], which “increase in L-14C-DHA uptake versus 21% oxygen tension” value ([2]; 2.5% oxygen, absence of glucose) is on record?
Answer: 1.6 fold

Question: And the “increase in L-14C-DHA uptake versus 21% oxygen tension” value ([2]; 5% oxygen)?
Answer: no increase

Question: What about the “14C-DHA Uptake (change versus 21% oxygen tension)” value ([2]; O2 tension 5%, 24 hrs) of the same compound?
Answer: No change

Question: Which “ability to compete with L-14C-Asc for transport” value (“ability … for transport” below) ([1]; 10 minutes) does the source give for O=C1OC(C(O)CO)C(=O)C1=O [DHA, L-dehydroascorbate] here?
Answer: unable to effectively compete

Question: What about the “ability to compete with L-14C-DHA transport” value ([2]; 10 min) of the same compound?
Answer: able to effectively compete

Question: And the “increase in DHA transport versus 21% oxygen tension” value ([2]; human, 10 min, 189 µM, pH 7.3)?
Answer: 2.7 fold

Question: What about the “increase of DHA transport versus 21% oxygen tension” value ([2]; human, 10 min, 189 µM, pH 7.3) of the same compound?
Answer: 3.2 fold

Question: And the “increase of DHA transport versus 21% oxygen tension, mean” value ([2]; human, 10 min, 189 µM, pH 7.3)?
Answer: 3.5 fold

Question: What about the “passive diffusion of DHA as share of transport under optimized conditions” value ([2]; human, 10 min, 189 µM, pH 7.3) of the same compound?
Answer: 11%

Question: With O=C1O[C@H]([C@H](O)CO)C(O)=C1O [D-Asc, D-isoascorbic acid] as the compound, how does the “ability … for transport” value ([1]; 10 minutes) read?
Answer: unable to effectively compete

Question: What about the “ability to compete with L-14C-DHA transport” value ([2]; 10 min) of the same compound?
Answer: able to effectively compete

Question: And the “mode of inhibition of L-14C-DHA transport (Dixon plot)” value [2]?
Answer: non-competitive inhibitors

Question: With O=C1O[C@H]([C@H](O)CO)C([O-])=C1O.[Na+] [Na D-Asc, Na D-isoascorbate] as the compound, how does the “ability … for transport” value ([1]; 10 minutes) read?
Answer: unable to effectively compete

Question: And the “ability to compete with L-14C-DHA transport” value ([2]; 10 min)?
Answer: able to effectively compete

Question: Which “ability to compete with L-14C-DHA transport” value ([2]; 10 min) does the source give for Na L-dehydroascorbate [Na L-DHA] here?
Answer: able to effectively compete

Question: Which “inhibition of L-14C-Asc transport” value [1, 5] does the source give for C=C1[C@@H](C)[C@H]2[C@H](Cc3ccccc3)NC(=O)[C@]23OC(=O)/C=C/[C@H](O)CCC[C@@H](C)C/C=C/[C@H]3[C@@H]1O [cytochalasin B] here?
Answer: 40%

Question: What about the “inhibition of DHA transport” value ([2]; 10 min) of the same compound?
Answer: 95%

Question: For Na D-dehydroascorbate [Na D-DHA], which “ability to compete with L-14C-DHA transport” value ([2]; 10 min) is on record?
Answer: unable to compete
